In US12239714B2, “Phosphatidylserine-binding conjugates” (CANBAS CO., LTD., priority 2021, dated 2025):
Entries after “also recorded” stand apart in the source; their conditions may differ.

Columns and labels:
[1] = system: CT-26 mouse colon cancer cell line; test: Tumor growth curves of subcutaneously implanted CT-26 in syngeneic BALB/c mice (FIGS. 4A-4D); format: in vivo; conditions: for mouse body weight, compared with the triple drug combination: 100 μg/mouse iv added to Cisplatin+CBP501+anti-CTLA4, data not shown; for CT26 tumor growth, conjugate added to Cisplatin+CBP501+anti-CTLA4 treatment: 100 μg/mouse iv, day 2×2, day 3×1
Protocol: BALB/c mice were implanted subcutaneously with 5×10^5 cells mice colon cancer cell line, CT-26WT, at day −10 when the mice were at the age 6 weeks. Six mice made a group for each treatment when the average tumor size was 205 mm^3 (132-279 mm^3). Treatments were done as follows when the mice were at the age 8 weeks with body weight 19.5 to 24.5 g and tumor size were measured three times in a week.
Dosing schedule (“ip”: intraperitoneal injection; “iv”: intravenous injection): • Diphenhydramine (ip): 10 mg/kg (15 min before Cisplatin/CBP501 on day 1) • Cisplatin (iv): 4 mg/kg (day 1) • CBP501 (iv): 6 mg/kg (day 1) • Anti-CTLA4 antibody (ip) 200 μg/mouse (day2, 4) • TSA005,006 in saline (iv): 100 μg/mouse (day 2×2, day3×1) • TSA015 in HEPES (iv): 100 μg/mouse (day 2×2, day3×1) • Vehicle: saline (iv): 100 μL/mouse (day 2×2, day3×1) Distribution of the Cy5.5 Version of TSA006 (TSA013) in BALB/c Mouse. (FIG. 5)

[2] = system: CT26 colon cancer cell line; test: Syngeneic mice model, TSA005 (FIG. 1): growth of subcutaneous CT26 tumor; format: in vivo, BALB/c mice
Protocol: All animal studies were conducted according to protocols approved by institutional animal care committee of CanBas Co., Ltd. Six-week-old female BALB/c mice (The Jackson Laboratories Japan, Inc., Kanagawa, Japan) were inoculated subcutaneously in a flank with a suspension of CT26WT cells (5×10^5 cells). Ten days later mice were apportioned into 5 groups (6-8 mice/group) and treatments were initiated on day1.
The first cycle of the treatments was on day 1 to 5 and the second cycle was on day 10 to 14 as follows.
Cisplatin: Intravenous injection (i.v.) of Cisplatin 4 mg/kg and 5% Glucose on Day 1 and 10. Saline i.v. on Days 2, 3, 11 and 12.
Cisplatin+CBP501: Cisplatin 4 mg/kg and CBP501 6 mg/kg i.v. on Day 1 and 10. Saline i.v. on Days 2, 3, 11 and 12.
Cisplatin+CBP501+anti-CTLA-4 antibody: anti-CTLA4 antibody 200 μg intraperitoneal injection (i.p.) on Days 1 and 5. Cisplatin 4 mg/kg and CBP501 6 mg/kg i.v. on Day 2.
Cisplatin+CBP501+anti-CTLA-4 antibody+TSA005: anti-CTLA4 antibody 200 μg i.p. on Days 1 and 5. Cisplatin 4 mg/kg and CBP501 6 mg/kg i.v. on Day 2. TSA005 100 μg i.v. twice on Day 3 and once on Day 4.
Diphenhydramine 10 mg/kg was given i.p. 15 min before CBP501 or 5% Glucose treatment. The size of tumor was measured thrice weekly with a pair of calipers to calculate tumor volume by using the following formula: volume (mm^3)=[(width)^2 (mm)×length (mm)]/2.
Colon cancer cells from the CT26 cell line were subcutaneously inoculated in BALB/c mice 5×10^5 cells/mouse. The treatment was initiated on day 1, when the tumor sizes of 6-8 mice per test group attained an average size of about 200 mm^3. A cycle of the treatment schedule, dose and the route of treatment are detailed below. […]

[3] = system: CT26 colon cancer cell line; test: Syngeneic mice model, TSA005 compared to TSA009 (FIG. 2); format: in vivo, BALB/c mice; conditions: 100 μg i.v. twice on Day 3 and once on Day 4; one cycle
Protocol: All animal studies were conducted according to protocols approved by institutional animal care committee of CanBas Co., Ltd. Six-week-old female BALB/c mice (The Jackson Laboratories Japan, Inc., Kanagawa, Japan) were inoculated subcutaneously in a flank with a suspension of CT26WT cells (5×10^5 cells). Ten days later, the mice were apportioned into 3 groups (6 mice/group) and treatments were initiated on Day 1.
Cisplatin+CBP501+anti-CTLA-4 antibody: anti-CTLA4 antibody 200 μg intraperitoneal injection (i.p.) on Days 3 and 5. Cisplatin 4 mg/kg and CBP501 6 mg/kg i.v. on Day 2. Saline i.v. twice on Day 3 and once on Day 4.
Cisplatin+CBP501+anti-CTLA-4 antibody+TSA005: anti-CTLA4 antibody 200 μg i.p. on Days 3 and 5. Cisplatin 4 mg/kg and CBP501 6 mg/kg i.v. on Day 2. TSA005 100 μg i.v. twice on Day 3 and once on Day 4.
Cisplatin+CBP501+anti-CTLA-4 antibody+TSA009: anti-CTLA4 antibody 200 μg i.p. on Days 3 and 5. Cisplatin 4 mg/kg and CBP501 6 mg/kg i.v. on Day 2. […] 100 μg i.v. twice on Day 3 and once on Day 4.
Diphenhydramine 10 mg/kg was given i.p. 15 min before CBP501 or 5% Glucose treatment. The size of tumor was measured thrice weekly with a pair of calipers to calculate tumor volume by using the following formula: volume (mm^3)=[(width)2 (mm)×length (mm)]/2.

Row | Substance | mouse body weight, compared with the triple drug combination [1] | CT26 tumor growth, conjugate added to Cisplatin+CBP501+anti-CTLA4 treatment [1] | tumor growth, TSA005 added to the CBP501+cisplatin combination ([2]; TSA005 100 μg i.v. Days 2, 3, 11 and 12, two cycles) | anti-tumor activity of TSA005 in combination with the two-drug or three-drug treatment regimen ([2]; TSA005 100 μg i.v., with CBP501+cisplatin or CBP501+cisplatin+anti-CTLA-4 antibody) | CT26 subcutaneous tumor growth, conjugate added to CBP501+cisplatin+anti-CTLA4 antibody [3] | subcutaneous tumor growth, CBP501+cisplatin combination versus cisplatin alone ([2]; Cisplatin 4 mg/kg and CBP501 6 mg/kg i.v. Day 1 and 10, CT26 in BALB/c mice, acetate salt)
1 | (GEGKGGr)4-K2-K-Cys(MI-CL264)-NH2 [TSA006] | did not change the mouse body weight further | further tumor growth suppression; also recorded: further suppressed the tumor growth | – | – | – | –
2 | (TLVSSLr)4-K2-K-Cys(MI-CL264)-NH2 [TSA005] | did not change the mouse body weight further | further tumor growth suppression; also recorded: further suppressed the tumor growth | further suppressed the tumor growth; also recorded: further reduced the growth of the tumor | enhanced anti-tumor activity; also recorded: reduced tumor growth further than the triple drug combination | suppressed CT26 subcutanous tumor growth more | –
3 | (TLVSSLr)8-K4-K2-K-Cys(MI-CL264)-NH2 [TSA009] | – | – | – | – | not and deleterious effect | –
4 | H-(D)p-benzoylphenylalanyl-(D)seryl-(D)tryptophanyl-(D)seryl-(D)pentafluorophenylalanyl-(D)cyclohexylalanyl-(D)arginyl-(D)arginyl- (D)arginyl-(D)glutaminyl-(D)arginyl-(D)arginine acetate salt [CBP501, reference compound] | – | – | – | – | – | suppressed subcutaneous tumor growth much better than cisplatin alone
